Structures are written as SMILES.

LRRK2 G2019S, sequence (Q5S007 whole entry G2019S): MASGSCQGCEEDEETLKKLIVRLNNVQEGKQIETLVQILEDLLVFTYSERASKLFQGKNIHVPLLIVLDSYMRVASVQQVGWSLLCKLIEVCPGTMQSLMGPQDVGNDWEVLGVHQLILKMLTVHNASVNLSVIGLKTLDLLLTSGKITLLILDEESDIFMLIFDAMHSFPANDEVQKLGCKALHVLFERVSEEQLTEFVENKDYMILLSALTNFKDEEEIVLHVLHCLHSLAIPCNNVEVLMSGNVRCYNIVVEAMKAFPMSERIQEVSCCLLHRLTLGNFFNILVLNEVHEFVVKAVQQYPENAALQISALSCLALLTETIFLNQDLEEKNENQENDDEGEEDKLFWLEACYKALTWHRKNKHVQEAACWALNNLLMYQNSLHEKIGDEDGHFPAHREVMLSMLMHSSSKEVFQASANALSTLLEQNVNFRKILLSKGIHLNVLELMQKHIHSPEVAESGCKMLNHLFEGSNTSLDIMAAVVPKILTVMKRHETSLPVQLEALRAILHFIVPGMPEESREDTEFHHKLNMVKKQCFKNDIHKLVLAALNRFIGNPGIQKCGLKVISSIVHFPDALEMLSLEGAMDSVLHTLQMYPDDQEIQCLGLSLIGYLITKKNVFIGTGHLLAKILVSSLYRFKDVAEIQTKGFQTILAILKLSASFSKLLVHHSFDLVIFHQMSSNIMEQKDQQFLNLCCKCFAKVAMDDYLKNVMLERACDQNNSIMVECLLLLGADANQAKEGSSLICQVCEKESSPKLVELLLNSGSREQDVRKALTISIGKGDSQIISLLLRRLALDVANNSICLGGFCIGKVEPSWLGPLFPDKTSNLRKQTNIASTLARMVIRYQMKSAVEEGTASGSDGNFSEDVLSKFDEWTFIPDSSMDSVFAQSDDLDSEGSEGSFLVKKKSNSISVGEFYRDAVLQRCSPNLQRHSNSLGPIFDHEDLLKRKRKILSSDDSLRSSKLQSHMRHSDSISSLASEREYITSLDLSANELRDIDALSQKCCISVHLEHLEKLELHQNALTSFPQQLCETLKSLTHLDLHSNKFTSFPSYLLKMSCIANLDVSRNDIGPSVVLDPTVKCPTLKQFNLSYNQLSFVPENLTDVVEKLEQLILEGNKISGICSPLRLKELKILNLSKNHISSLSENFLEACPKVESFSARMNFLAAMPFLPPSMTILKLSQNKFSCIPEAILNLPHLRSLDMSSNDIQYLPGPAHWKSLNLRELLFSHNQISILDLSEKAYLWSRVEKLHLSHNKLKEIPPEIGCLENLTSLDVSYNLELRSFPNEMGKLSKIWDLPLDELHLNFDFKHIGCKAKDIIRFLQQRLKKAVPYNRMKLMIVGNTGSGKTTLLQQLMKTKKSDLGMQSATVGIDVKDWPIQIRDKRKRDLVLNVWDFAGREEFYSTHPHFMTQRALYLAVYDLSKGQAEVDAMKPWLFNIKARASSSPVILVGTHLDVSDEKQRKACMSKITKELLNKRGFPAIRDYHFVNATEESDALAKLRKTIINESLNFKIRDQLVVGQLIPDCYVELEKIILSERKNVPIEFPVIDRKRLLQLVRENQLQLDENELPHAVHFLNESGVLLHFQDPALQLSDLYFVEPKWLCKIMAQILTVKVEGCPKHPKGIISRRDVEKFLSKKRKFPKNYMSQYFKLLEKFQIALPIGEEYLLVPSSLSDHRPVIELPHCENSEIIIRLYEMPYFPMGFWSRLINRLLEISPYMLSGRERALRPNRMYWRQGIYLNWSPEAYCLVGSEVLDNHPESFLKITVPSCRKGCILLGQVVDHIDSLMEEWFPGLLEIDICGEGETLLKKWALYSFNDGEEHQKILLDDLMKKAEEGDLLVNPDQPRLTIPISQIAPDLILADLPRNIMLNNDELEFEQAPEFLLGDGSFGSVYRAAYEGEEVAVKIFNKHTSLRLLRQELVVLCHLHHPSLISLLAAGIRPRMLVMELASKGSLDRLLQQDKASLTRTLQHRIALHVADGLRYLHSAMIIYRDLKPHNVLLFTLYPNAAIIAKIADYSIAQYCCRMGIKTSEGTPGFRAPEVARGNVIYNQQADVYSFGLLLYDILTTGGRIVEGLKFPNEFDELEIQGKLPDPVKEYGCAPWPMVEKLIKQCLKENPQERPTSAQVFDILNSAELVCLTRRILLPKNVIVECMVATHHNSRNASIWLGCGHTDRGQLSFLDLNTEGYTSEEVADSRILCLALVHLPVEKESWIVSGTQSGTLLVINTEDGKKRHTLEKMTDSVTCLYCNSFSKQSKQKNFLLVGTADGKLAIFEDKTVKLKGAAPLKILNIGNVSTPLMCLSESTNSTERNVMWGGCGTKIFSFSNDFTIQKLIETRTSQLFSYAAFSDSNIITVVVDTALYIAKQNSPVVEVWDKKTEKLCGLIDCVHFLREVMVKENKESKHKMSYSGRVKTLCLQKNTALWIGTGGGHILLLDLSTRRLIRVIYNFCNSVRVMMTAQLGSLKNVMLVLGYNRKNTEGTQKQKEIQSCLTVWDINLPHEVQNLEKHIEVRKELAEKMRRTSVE

This assay concerns the target LRRK2 G2019S (Homo sapiens, UniProt Q5S007, G2019S). Description: LRRK2 G2019S Km ATP LanthaScreen assay. It counts as biochemical. The following applies: read-out: LRRK2 pIC50 (converted). A general note: In TR-FRET formats the signal depends on donor and acceptor labels being close together.
As to `CC1(N2CCC(c3cc4cc(NC(=O)C5CC56CCOCC6)ncc4cc3Cl)CC2)COC(C2CC2)C1` (single isomer, unassigned) [Ex-6.17, N-(7-chloro-6-(1-(5-cyclopropyl-3-methyltetrahydrofuran-3-yl)piperidin-4-yl)isoquinolin-3-yl)-6-oxaspiro[2.5]octane-1-carboxamide], the IC50 is 3.55 nM. Regarding `CC1(C)COCC1(C)N1CCC(c2cc3cc(NC(=O)C4CC45CCOCC5)ncc3cc2Cl)CC1` (single isomer, unassigned) [Ex-6.18, N-(7-chloro-6-(1-(3,4,4-trimethyltetrahydrofuran-3-yl)piperidin-4-yl)isoquinolin-3-yl)-6-oxaspiro[2.5]octane-1-carboxamide], the IC50 is 0.708 nM. Regarding `CC1(C)COCC1(C)N1CCC(c2cc3cc(NC(=O)C4CC45CCOCC5)ncc3cc2Cl)CC1` (single isomer, unassigned) [Ex-6.19, N-(7-chloro-6-(1-(3,4,4-trimethyltetrahydrofuran-3-yl)piperidin-4-yl)isoquinolin-3-yl)-6-oxaspiro[2.5]octane-1-carboxamide], the IC50 was 39.8 nM. The value for `COC1COCC1(C)N1CCC(c2cc3cc(NC(=O)C4CC45CCOCC5)ncc3cc2Cl)CC1` (single isomer, unassigned) [Ex-6.22, N-(7-chloro-6-(1-(4-methoxy-3-methyltetrahydrofuran-3-yl)piperidin-4-yl)isoquinolin-3-yl)-6-oxaspiro[2.5]octane-1-carboxamide] was 0.0813 nM; that for `COC1COCC1(C)N1CCC(c2cc3cc(NC(=O)C4CC45CCOCC5)ncc3cc2Cl)CC1` (single isomer, unassigned) [Ex-6.23, N-(7-chloro-6-(1-(4-methoxy-3-methyltetrahydrofuran-3-yl)piperidin-4-yl)isoquinolin-3-yl)-6-oxaspiro[2.5]octane-1-carboxamide] was 1.82 nM.

For the compound `CC1(N2CCC(c3cc4cc(NC(=O)C5CC56CCOCC6)ncc4cc3Cl)CC2)COCC1F` (single isomer, unassigned) [Ex-6.24, N-(7-chloro-6-(1-(4-fluoro-3-methyltetrahydrofuran-3-yl)piperidin-4-yl)isoquinolin-3-yl)-6-oxaspiro[2.5]octane-1-carboxamide], the IC50 was 0.0813 nM. Next, `CC1(N2CCC(c3cc4cc(NC(=O)C5CC56CCOCC6)ncc4cc3Cl)CC2)COCC1F` (single isomer, unassigned) [Ex-6.25, N-(7-chloro-6-(1-(4-fluoro-3-methyltetrahydrofuran-3-yl)piperidin-4-yl)isoquinolin-3-yl)-6-oxaspiro[2.5]octane-1-carboxamide]: 1.66 nM; `CC(C)(O)C1CC1C(=O)Nc1cc2cc(C3CCN(C4(C)COCC4F)CC3)c(Cl)cc2cn1` (single isomer, unassigned) [Ex-6.26, N-(7-chloro-6-(1-(4-fluoro-3-methyltetrahydrofuran-3-yl)piperidin-4-yl)isoquinolin-3-yl)-2-(2-hydroxypropan-2-yl)cyclopropane-1-carboxamide]: 0.234 nM; `CC(C)(O)C1CC1C(=O)Nc1cc2cc(C3CCN(C4(C)COCC4F)CC3)c(Cl)cc2cn1` (single isomer, unassigned) [Ex-6.27, N-(7-chloro-6-(1-(4-fluoro-3-methyltetrahydrofuran-3-yl)piperidin-4-yl)isoquinolin-3-yl)-2-(2-hydroxypropan-2-yl)cyclopropane-1-carboxamide]: 112 nM. The value for `CC(C)(O)C1CC1C(=O)Nc1cc2cc(C3CCN(C4(C)COCC4F)CC3)c(Cl)cc2cn1` (single isomer, unassigned) [Ex-6.28, N-(7-chloro-6-(1-(4-fluoro-3-methyltetrahydrofuran-3-yl)piperidin-4-yl)isoquinolin-3-yl)-2-(2-hydroxypropan-2-yl)cyclopropane-1-carboxamide] was 0.363 nM; that for `CC(C)(O)C1CC1C(=O)Nc1cc2cc(C3CCN(C4(C)COCC4F)CC3)c(Cl)cc2cn1` (single isomer, unassigned) [Ex-6.29, N-(7-chloro-6-(1-(4-fluoro-3-methyltetrahydrofuran-3-yl)piperidin-4-yl)isoquinolin-3-yl)-2-(2-hydroxypropan-2-yl)cyclopropane-1-carboxamide] was 24.5 nM. As to `Cn1cc(C2CC2C(=O)Nc2cc3cc(C4CCN(C5(C)COCC5F)CC4)c(Cl)cc3cn2)cn1` (single isomer, unassigned) [Ex-6.30, N-(7-chloro-6-(1-(4-fluoro-3-methyltetrahydrofuran-3-yl)piperidin-4-yl)isoquinolin-3-yl)-2-(1-methyl-1H-pyrazol-4-yl)cyclopropane-1-carboxamide], the IC50 was 1.45 nM. The value for `Cn1cc(C2CC2C(=O)Nc2cc3cc(C4CCN(C5(C)COCC5F)CC4)c(Cl)cc3cn2)cn1` (single isomer, unassigned) [Ex-6.31, N-(7-chloro-6-(1-(4-fluoro-3-methyltetrahydrofuran-3-yl)piperidin-4-yl)isoquinolin-3-yl)-2-(1-methyl-1H-pyrazol-4-yl)cyclopropane-1-carboxamide] was 0.178 nM; that for `CC1(N2CCC(c3cc4cc(NC(=O)C5CC5c5ccccn5)ncc4cc3Cl)CC2)CCOC1` (single isomer, unassigned) [Ex-6.32, N-(7-chloro-6-(1-(3-methyltetrahydrofuran-3-yl)piperidin-4-yl)isoquinolin-3-yl)-2-(pyridin-2-yl)cyclopropane-1-carboxamide] was 5.62 nM; that for `CC1(N2CCC(c3cc4cc(NC(=O)C5CC5c5ccccn5)ncc4cc3Cl)CC2)CCOC1` (single isomer, unassigned) [Ex-6.33, N-(7-chloro-6-(1-(3-methyltetrahydrofuran-3-yl)piperidin-4-yl)isoquinolin-3-yl)-2-(pyridin-2-yl)cyclopropane-1-carboxamide] was 87.1 nM. For the compound `CC1(N2CCC(c3cc4cc(NC(=O)C5CC5c5ccccn5)ncc4cc3Cl)CC2)CCOC1` (single isomer, unassigned) [Ex-6.34, N-(7-chloro-6-(1-(3-methyltetrahydrofuran-3-yl)piperidin-4-yl)isoquinolin-3-yl)-2-(pyridin-2-yl)cyclopropane-1-carboxamide], the IC50 was 0.977 nM. Next, `CC1(N2CCC(c3cc4cc(NC(=O)C5CC5c5ccccn5)ncc4cc3Cl)CC2)CCOC1` (single isomer, unassigned) [Ex-6.35, N-(7-chloro-6-(1-(3-methyltetrahydrofuran-3-yl)piperidin-4-yl)isoquinolin-3-yl)-2-(pyridin-2-yl)cyclopropane-1-carboxamide]: 6.61 nM. Next, `CC1(C)CC(C(=O)Nc2cc3cc(C4CCN(C5(C)COCC5F)CC4)c(Cl)cc3cn2)CCO1` (single isomer, unassigned) [Ex-6.36, N-(7-chloro-6-(1-(4-fluoro-3-methyltetrahydrofuran-3-yl)piperidin-4-yl)isoquinolin-3-yl)-2,2-dimethyltetrahydro-2H-pyran-4-carboxamide]: 0.0813 nM. Next, `CC1(C)CC(C(=O)Nc2cc3cc(C4CCN(C5(C)COCC5F)CC4)c(Cl)cc3cn2)CCO1` (single isomer, unassigned) [Ex-6.37, N-(7-chloro-6-(1-(4-fluoro-3-methyltetrahydrofuran-3-yl)piperidin-4-yl)isoquinolin-3-yl)-2,2-dimethyltetrahydro-2H-pyran-4-carboxamide]: 0.0813 nM; `CC1(C)CC(C(=O)Nc2cc3cc(C4CCN(C5(C)COCC5F)CC4)c(Cl)cc3cn2)CCO1` (single isomer, unassigned) [Ex-6.38, N-(7-chloro-6-(1-(4-fluoro-3-methyltetrahydrofuran-3-yl)piperidin-4-yl)isoquinolin-3-yl)-2,2-dimethyltetrahydro-2H-pyran-4-carboxamide]: 0.871 nM; `CC1(C)CC(C(=O)Nc2cc3cc(C4CCN(C5(C)COCC5F)CC4)c(Cl)cc3cn2)CCO1` (single isomer, unassigned) [Ex-6.39, N-(7-chloro-6-(1-(4-fluoro-3-methyltetrahydrofuran-3-yl)piperidin-4-yl)isoquinolin-3-yl)-2,2-dimethyltetrahydro-2H-pyran-4-carboxamide]: 89.1 nM. In the case of `CC1(N2CCC(c3cc4cc(NC(=O)C5C6CCOCC65)ncc4cc3Cl)CC2)COCC1F` (single isomer, unassigned) [Ex-6.40, N-(7-chloro-6-(1-(4-fluoro-3-methyltetrahydrofuran-3-yl)piperidin-4-yl)isoquinolin-3-yl)-3-oxabicyclo[4.1.0]heptane-7-carboxamide], the IC50 is 0.0813 nM. The value for `CC1(N2CCC(c3cc4cc(NC(=O)C5C6CCOCC65)ncc4cc3Cl)CC2)COCC1F` (single isomer, unassigned) [Ex-6.41, N-(7-chloro-6-(1-(4-fluoro-3-methyltetrahydrofuran-3-yl)piperidin-4-yl)isoquinolin-3-yl)-3-oxabicyclo[4.1.0]heptane-7-carboxamide] was 0.0813 nM. The value for `CC1(N2CCC(c3cc4cc(NC(=O)C5C6CCOCC65)ncc4cc3Cl)CC2)COCC1F` (single isomer, unassigned) [Ex-6.42, N-(7-chloro-6-(1-(4-fluoro-3-methyltetrahydrofuran-3-yl)piperidin-4-yl)isoquinolin-3-yl)-3-oxabicyclo[4.1.0]heptane-7-carboxamide] was 0.38 nM. The value for `CC1(N2CCC(c3cc4cc(NC(=O)C5C6CCOCC65)ncc4cc3Cl)CC2)COCC1F` (single isomer, unassigned) [Ex-6.43, N-(7-chloro-6-(1-(4-fluoro-3-methyltetrahydrofuran-3-yl)piperidin-4-yl)isoquinolin-3-yl)-3-oxabicyclo[4.1.0]heptane-7-carboxamide] was 2.82 nM.

For the compound `CC1(C)CC(C(=O)Nc2cc3cc(C4CCN(C5(C)CCOC5)CC4)c(Cl)cc3cn2)CCO1` (single isomer, unassigned) [Ex-6.44, N-(7-chloro-6-(1-(3-methyltetrahydrofuran-3-yl)piperidin-4-yl)isoquinolin-3-yl)-2,2-dimethyltetrahydro-2H-pyran-4-carboxamide], the IC50 is 5.37 nM.

Source of the values: patent US20240398784A1, “C-LINKED ISOQUINOLINE AMIDES AS LRRK2 INHIBITORS, PHARMACEUTICAL COMPOSITIONS, AND USES THEREOF” (Merck Sharp & Dohme LLC, priority 2021, published 2024).
